Assay results taken from patent US9730937B2, “RAF kinase modulator compounds and methods of use thereof” (AMBIT BIOSCIENCES CORPORATION, priority 2008, dated 2017).

Tested on: panel of 290 distinct kinases (321 in the larger panel), excluding mutant variants
Conditions: asterisk: panel of 321 distinct kinases

Row | SMILES | S35
1 | COCCOc1cc2ncnc(Oc3cccc(NC(=O)Nc4cc(C(C)(CF)CF)nn4-c4ccccc4)c3)c2cc1OC [Ex 228, 1-[3-(1,3-difluoro-2-methylpropan-2-yl)-1-phenyl-1H-pyrazol-5-yl]-3-{3-[6-methoxy-7-(2-methoxyethoxy)quinazolin-4-yloxy]phenyl}urea] | D* (D > 0.40)
2 | COCCOc1cc2ncnc(Oc3cccc(NC(=O)Nc4cc(C(F)(F)F)no4)c3)c2cc1OC [Ex 229, 1-(3-(6-methoxy-7-(2-methoxyethoxy)quinazolin-4-yloxy)phenyl)-3-(3-(trifluoromethyl)isoxazol-5-yl)urea] | C* (0.20 < C ≦ 0.40)
3 | COCCOc1cc2ncnc(Sc3cccc(NC(=O)Nc4cc(C(C)(CF)CF)on4)c3)c2cc1OC [Ex 230, 1-[5-(1,3-difluoro-2-methylpropan-2-yl)isoxazol-3-yl]-3-{3-[6-methoxy-7-(2-methoxyethoxy)quinazolin-4-ylthio]phenyl}urea] | C* (0.20 < C ≦ 0.40)
4 | COCCOc1cc2ncnc(Sc3cccc(NC(=O)Nc4ccc(C(F)(F)F)c(F)c4)c3)c2cc1OC [Ex 231, 1-(3-fluoro-4-(trifluoromethyl)phenyl)-3-(3-(6-methoxy-7-(2-methoxyethoxy)quinazolin-4-ylthio)phenyl)urea] | B* (0.10 < B ≦ 0.20)
5 | COCCOc1cc2ncnc(Sc3cccc(NC(=O)Nc4cc(C(C)C)on4)c3)c2cc1OC [Ex 232, 1-(5-isopropylisoxazol-3-yl)-3-(3-(6-methoxy-7-(2-methoxyethoxy)quinazolin-4-ylthio)phenyl)urea] | C* (0.20 < C ≦ 0.40)
6 | COCCOc1cc2ncnc(Sc3cccc(NC(=O)Nc4ccc(C(F)(F)F)c(OC)c4)c3)c2cc1OC [Ex 233, 1-(3-methoxy-4-(trifluoromethyl)phenyl)-3-(3-(6-methoxy-7-(2-methoxyethoxy)quinazolin-4-ylthio)phenyl)urea] | C* (0.20 < C ≦ 0.40)
7 | COCCOc1cc2ncnc(Sc3cccc(NC(=O)Nc4cc(C(C)(C)F)no4)c3)c2cc1OC [Ex 234, 1-(3-(2-fluoropropan-2-yl)isoxazol-5-yl)-3-(3-(6-methoxy-7-(2-methoxyethoxy)quinazolin-4-ylthio)phenyl)urea] | C* (0.20 < C ≦ 0.40)
8 | COCCOc1cc2ncnc(Sc3cccc(NC(=O)Nc4cc(C5CCCC5)on4)c3)c2cc1OC [Ex 235, 1-(5-cyclopentylisoxazol-3-yl)-3-(3-(6-methoxy-7-(2-methoxyethoxy)quinazolin-4-ylthio)phenyl)urea] | C* (0.20 < C ≦ 0.40)
9 | COCCOc1cc2ncnc(Sc3cccc(NC(=O)Nc4cc(C(C)(C)C)nn4-c4ccccc4)c3)c2cc1OC [Ex 236, 1-(3-tert-butyl-1-phenyl-1H-pyrazol-5-yl)-3-(3-(6-methoxy-7-(2-methoxyethoxy)quinazolin-4-ylthio)phenyl)urea] | D* (D > 0.40)
10 | CCOC(=O)Cn1nc(C(C)(C)C)cc1NC(=O)Nc1cccc(Sc2ncnc3cc(OCCOC)c(OC)cc23)c1 [Ex 237, ethyl 2-[3-tert-butyl-5-(3-{3-[6-methoxy-7-(2-methoxyethoxy)quinazolin-4-ylthio]phenyl}ureido)-1H-pyrazol-1-yl]acetate] | C* (0.20 < C ≦ 0.40)
11 | COCCOc1cc2ncnc(Sc3cccc(NC(=O)Nc4cc(C(C)(CF)CF)nn4-c4ccccc4)c3)c2cc1OC [Ex 238, 1-[3-(1,3-difluoro-2-methylpropan-2-yl)-1-phenyl-1H-pyrazol-5-yl]-3-{3-[6-methoxy-7-(2-methoxyethoxy)quinazolin-4-ylthio]phenyl}urea] | D* (D > 0.40)
12 | COCCOc1cc2ncnc(Sc3cccc(NC(=O)Nc4cc(C(F)(F)F)nn4C)c3)c2cc1OC [Ex 239, 1-{3-[6-methoxy-7-(2-methoxyethoxy)quinazolin-4-ylthio]phenyl}-3-[1-methyl-3-(trifluoromethyl)-1H-pyrazol-5-yl]urea] | D* (D > 0.40)
13 | COCCOc1cc2ncnc(Sc3cccc(NC(=O)Nc4cc(C(F)(F)F)nn4-c4ccc(F)cc4)c3)c2cc1OC [Ex 242, 1-[1-(4-fluorophenyl)-3-(trifluoromethyl)-1H-pyrazol-5-yl]-3-{3-[6-methoxy-7-(2-methoxyethoxy)quinazolin-4-ylthio]phenyl}urea] | C* (0.20 < C ≦ 0.40)
14 | COCCOc1cc2ncnc(Sc3cccc(NC(=O)Nc4cc(C(F)(F)F)nn4-c4ccc(C)cc4)c3)c2cc1OC [Ex 243, 1-{3-[6-methoxy-7-(2-methoxyethoxy)quinazolin-4-ylthio]phenyl}-3-[1-p-tolyl-3-(trifluoromethyl)-1H-pyrazol-5-yl]urea] | C* (0.20 < C ≦ 0.40)
15 | COCCOc1cc2ncnc(Sc3cccc(NC(=O)Nc4cc(C(F)(F)F)n(-c5ccccc5)n4)c3)c2cc1OC [Ex 244, 1-{3-[6-methoxy-7-(2-methoxyethoxy)quinazolin-4-ylthio]phenyl}-3-[1-phenyl-5-(trifluoromethyl)-1H-pyrazol-3-yl]urea] | C* (0.20 < C ≦ 0.40)
16 | COc1cc2ncnc(Sc3cccc(NC(=O)Nc4cc(C(C)(C)F)no4)c3)c2cc1OCCCN1CCS(=O)(=O)CC1 [Ex 245, 1-(3-(2-fluoropropan-2-yl)isoxazol-5-yl)-3-(3-(7-methoxy-6-(4,4-dioxo-3-thiomorpholinopropoxy)quinazolin-4-ylthio)phenyl)urea] | C* (0.20 < C ≦ 0.40)
17 | COc1cc2ncnc(Sc3cccc(NC(=O)Nc4ccc(OC)c(C(F)(F)F)c4)c3)c2cc1OCCCN1CCS(=O)(=O)CC1 [Ex 246, 1-(4-methoxy-3-(trifluoromethyl)phenyl)-3-(3-(7-methoxy-6-(3-(4,4-dioxothiomorpholino)propoxy)quinazolin-4-ylthio)phenyl)urea] | C* (0.20 < C ≦ 0.40)
18 | COc1cc2c(Sc3cccc(NC(=O)Nc4ccc(OC)c(C(F)(F)F)c4)c3)ncnc2cc1OCCN1CCOCC1 [Ex 249, 1-(4-methoxy-3-(trifluoromethyl)phenyl)-3-(3-(6-methoxy-7-(2-morpholinoethoxy)quinazolin-4-ylthio)phenyl)urea] | C* (0.20 < C ≦ 0.40)
19 | COc1cc2c(Oc3cccc(NC(=O)Nc4ccc(OC)c(C(F)(F)F)c4)c3)ncnc2cc1OCCN1CCOCC1 [Ex 250, 1-(4-methoxy-3-(trifluoromethyl)phenyl)-3-(3-(6-methoxy-7-(2-morpholinoethoxy)quinazolin-4-yloxy)phenyl)urea] | C* (0.20 < C ≦ 0.40)
20 | COc1cc2c(Oc3cccc(NC(=O)Nc4cc(C(C)(C)F)no4)c3)ncnc2cc1OCCN1CCOCC1 [Ex 251, 1-(3-(2-fluoropropan-2-yl)isoxazol-5-yl)-3-(3-(6-methoxy-7-(2-morpholinoethoxy)quinazolin-4-yloxy)phenyl)urea] | C* (0.20 < C ≦ 0.40)

Same assay, conditions: no asterisk: panel of 290 distinct kinases

Row | SMILES | S35
21 | COCCOc1cc2ncnc(Sc3cccc(NC(=O)Nc4cc(C(C)(C)C)no4)c3)c2cc1OCCOC [Ex 247, 1-(3-(6,7-bis(2-methoxyethoxy)quinazolin-4-ylthio)phenyl)-3-(3-tert-butylisoxazol-5-yl)urea] | C (0.20 < C ≦ 0.40)
22 | COc1cc2ncnc(Oc3cccc(NC(=O)Nc4cnn(C(C)(C)C)c4)c3)c2cc1OC [Ex 252, 1-(1-tert-butyl-1H-pyrazol-4-yl)-3-(3-(6,7-dimethoxyquinazolin-4-yloxy)phenyl)urea] | C (0.20 < C ≦ 0.40)
23 | COc1cc2ncnc([S+]([O-])c3cccc(NC(=O)Nc4cc(C(C)(C)C)on4)c3)c2cc1OC (centres unmarked) [Ex 253, 1-(5-tert-butylisoxazol-3-yl)-3-(3-(6,7-dimethoxyquinazolin-4-ylsulfinyl)phenyl)urea] | C (0.20 < C ≦ 0.40)
